Assay results reported in ChEMBL document CHEMBL3526027, “Pharmacokinetics, metabolism, and excretion of the antidiabetic agent ertugliflozin (PF-04971729) in healthy male subjects” (Drug Metab Dispos, 2013).

Legend:
Plasma [1] = assay: Drug level in Sprague-Dawley rat plasma treated with [14C]-ertugliflozin at 25 mg/kg, po; type: ADME, organism-based; set-up: dose 25 mg/kg, route oral; conditions: in vivo
Plasma [2] = assay: Drug level in beagle dog plasma treated with [14C]-ertugliflozin at 10 mg/kg, po; type: ADME, organism-based, Canis lupus familiaris; set-up: dose 10 mg/kg, route oral; conditions: in vivo
[3] = Drug excretion in healthy human urine treated with [14C]-ertugliflozin at 25 mg, po by HPLC-radiocardiogram analysis; type: ADME, organism-based; conditions: in vivo
Homo sapiens [4] = assay: Total drug excretion in healthy human treated with [14C]-ertugliflozin at 25 mg, po by HPLC-radiocardiogram analysis; type: ADME, organism-based; conditions: in vivo
Plasma [5] = assay: Drug metabolism in healthy human plasma treated with [14C]-ertugliflozin at 25 mg, po by HPLC-radiocardiogram analysis; type: ADME, organism-based; conditions: in vivo
[6] = Drug level in bile duct-cannulated rat bile treated with [14C]-ertugliflozin at 25 mg/kg, po; type: ADME, organism-based; set-up: dose 25 mg/kg, route oral; conditions: in vivo
[7] = Drug level in bile duct-cannulated dog bile treated with [14C]-ertugliflozin at 10 mg/kg, po; type: ADME, organism-based, Canis lupus familiaris; set-up: dose 10 mg/kg, route oral; conditions: in vivo
Liver microsome [8] = assay: Metabolic stability in human liver microsomes assessed as retention time treated with 10 µM ertugliflozin by HPLC analysis
[9] = Drug recovery in beagle dog feces assessed as ertugliflozin-4-O-beta-glucuronide level at 10 mg/kg, po; type: ADME, organism-based, Canis lupus familiaris; set-up: dose 10 mg/kg, route oral; conditions: in vivo
Plasma [10] = assay: Drug metabolism in Sprague-Dawley rat plasma assessed as ertugliflozin-4-O-beta-glucuronide level at 25 mg/kg, po; type: ADME, organism-based; set-up: dose 25 mg/kg, route oral; conditions: in vivo
Plasma [11] = assay: Drug metabolism in Sprague-Dawley rat plasma assessed as ertugliflozin-3-O-beta-glucuronide level at 25 mg/kg, po; type: ADME, organism-based; set-up: dose 25 mg/kg, route oral; conditions: in vivo
Plasma [12] = assay: Drug metabolism in beagle dog plasma assessed as ertugliflozin-4-O-beta-glucuronide level at 10 mg/kg, po; type: ADME, organism-based, Canis lupus familiaris; set-up: dose 10 mg/kg, route oral; conditions: in vivo
Plasma [13] = assay: Drug metabolism in beagle dog plasma assessed as ertugliflozin-3-O-beta-glucuronide level at 10 mg/kg, po; type: ADME, organism-based, Canis lupus familiaris; set-up: dose 10 mg/kg, route oral; conditions: in vivo
Liver microsome [14] = assay: Metabolic stability in human liver microsomes assessed as retention time at 10 uM by HPLC analysis; conditions: in vitro
[15] = Drug recovery in Sprague-Dawley rat feces treated with [14C]-ertugliflozin at 25 mg/kg, po; type: ADME, organism-based; set-up: dose 25 mg/kg, route oral; conditions: in vivo
[16] = Drug recovery in beagle dog feces treated with [14C]-ertugliflozin at 10 mg/kg, po; type: ADME, organism-based, Canis lupus familiaris; set-up: dose 10 mg/kg, route oral; conditions: in vivo
[17] = Drug excretion in healthy human feces treated with [14C]-ertugliflozin at 25 mg, po by HPLC-radiocardiogram analysis; type: ADME, organism-based; conditions: in vivo
[18] = Oral bioavailability in Sprague-Dawley rat at 2 mg/kg; type: ADME, organism-based; conditions: in vivo
[19] = Oral bioavailability in beagle dog at 2 mg/kg; type: ADME, organism-based, Canis lupus familiaris; conditions: in vivo
[20] = Terminal elimination half life in human at 0.5 to 300 mg, po; type: ADME, organism-based; conditions: in vivo, read-out: beta t1/2 (converted)
[21] = Cmax in healthy human at 25 mg, po; type: ADME, organism-based; set-up: dose 25 mg, route oral; conditions: in vivo
[22] = Tmax in healthy human at 25 mg, po; type: ADME, organism-based; conditions: in vivo
[23] = AUC (0 to last) in healthy human at 25 mg, po; type: ADME, organism-based; set-up: dose 25 mg, time 0 - last, route oral; conditions: plasma
Homo sapiens [24] = assay: AUC (0 to infinity) in healthy human at 25 mg, po; type: ADME, organism-based, Plasma; set-up: dose 25 mg, time infinity, route oral; conditions: in vivo
[25] = Terminal half life in healthy human at 25 mg, po; type: ADME, organism-based; conditions: in vivo, read-out: beta t1/2 (converted)
[26] = Total drug excretion in healthy human at 25 mg, po by HPLC-radiocardiogram analysis; type: ADME, organism-based; conditions: in vivo, read-out: Drug excretion
[27] = Drug metabolism in healthy human plasma at 25 mg, po by HPLC-radiocardiogram analysis; type: ADME, organism-based; conditions: read-out: Drug metabolism
[28] = Drug level in bile duct-cannulated rat bile at 25 mg/kg, po; type: ADME, organism-based; set-up: dose 25 mg/kg, route oral; conditions: read-out: Drug uptake
[29] = Drug level in bile duct-cannulated dog bile at 10 mg/kg, po; type: ADME, organism-based, Canis lupus familiaris; set-up: dose 10 mg/kg, route oral; conditions: read-out: Drug uptake

Row | Drug metabolism (Plasma [1]) | Drug metabolism (Plasma [2]) | Drug excretion [3] | Drug excretion (Homo sapiens [4]) | Drug metabolism (Plasma [5]) | Retention_time (Liver microsome [8]) | Retention_time (Liver microsome [14]) | Drug recovery [16] | Drug excretion [17] | Compound | also measured
1 | metabolite_detected | metabolite_detected | 31.7% | 31.7% | 24.1% | 34.3 min | – | – | – | CCOc1ccc(Cc2cc([C@]34OC[C@](CO)(O3)[C@@H](O)[C@H](O[C@@H]3O[C@H](C(=O)O)[C@@H](O)[C@H](O)[C@H]3O)[C@H]4O)ccc2Cl)cc1 | Drug uptake [6]: 16.5%; Drug uptake [7]: 39.2%
2 | – | – | – | – | – | – | 36.4 min | – | – | CCO[14c]1[14cH][14cH][14c](Cc2cc([C@]34OC[C@](CO)(O3)[C@@H](O)[C@H](O)[C@H]4O)ccc2Cl)[14cH][14cH]1.O=C1CC[C@@H](C(=O)O)N1 | Drug recovery [9]: metabolite_not_detected; Drug metabolism (Plasma [10]): metabolite_detected; Drug metabolism (Plasma [11]): metabolite_detected; Drug metabolism (Plasma [12]): metabolite_detected; Drug metabolism (Plasma [13]): metabolite_detected
3 | – | – | 0.4% | 1.4% | 1.3% | 27.2 min | – | 8.7% | 1% | OC[C@@]12CO[C@@](c3ccc(Cl)c(Cc4ccc(O)cc4)c3)(O1)[C@H](O)[C@@H](O)[C@@H]2O | Drug recovery [15]: 26.7%
4 | metabolite_detected | metabolite_detected | 5.7% | 5.7% | 12.2% | 29.4 min | – | – | – | CCOc1ccc(Cc2cc([C@]34OC[C@](CO)(O3)[C@@H](O)[C@H](O)[C@H]4O[C@@H]3O[C@H](C(=O)O)[C@@H](O)[C@H](O)[C@H]3O)ccc2Cl)cc1 | –
5 | – | – | 0.7% | 2.4% | 2.5% | 27.9 min | – | 7.1% | 1.7% | CCOc1ccc(C(O)c2cc([C@]34OC[C@](CO)(O3)[C@@H](O)[C@H](O)[C@H]4O)ccc2Cl)cc1 (mixture of isomers) | –
6 | – | – | – | – | – | – | 36.4 min | – | – | CCOc1ccc(Cc2cc([C@]34OC[C@](CO)(O3)[C@@H](O)[C@H](O)[C@H]4O)ccc2Cl)cc1 [ERTUGLIFLOZIN] | bioavailability [18]: 69%; bioavailability [19]: 94%; half-life [20]: 11 h; Cmax [21]: 490 ng/mL; Tmax [22]: 1 h; AUC(0-t) [23]: 2790 ng·h/mL; AUC (Homo sapiens [24]): 2800 ng·h/mL; half-life [25]: 16.9 h; dose excreted [26]: 35.3%; metabolised [27]: 49.9%; dose excreted [28]: 2.4%; dose excreted [29]: 9.6%
